According to patent US20260167614A1, “IDENTIFICATION OF SMALL MOLECULES THAT RECRUIT AND ACTIVATE RNASE L” (UNIVERSITY OF FLORIDA RESEARCH FOUNDATION, INCORPORATED, priority 2022, published 2026):

Assays:
[1] = target: T1, pre-miR-21 mutant and RNase L (Homo sapiens, UniProt Q05823, H672N); assay: Co-immunoprecipitation of mutant pre-miR-21 and RNase L; type: binding; conditions: base paired mutant pre-miR-21, inactive RNase L
T1 construct: GST (N, cleaved yes); made in house; host or cells: BL21 AI Escherichia coli
T1 sequence (Q05823 1-741 H672N): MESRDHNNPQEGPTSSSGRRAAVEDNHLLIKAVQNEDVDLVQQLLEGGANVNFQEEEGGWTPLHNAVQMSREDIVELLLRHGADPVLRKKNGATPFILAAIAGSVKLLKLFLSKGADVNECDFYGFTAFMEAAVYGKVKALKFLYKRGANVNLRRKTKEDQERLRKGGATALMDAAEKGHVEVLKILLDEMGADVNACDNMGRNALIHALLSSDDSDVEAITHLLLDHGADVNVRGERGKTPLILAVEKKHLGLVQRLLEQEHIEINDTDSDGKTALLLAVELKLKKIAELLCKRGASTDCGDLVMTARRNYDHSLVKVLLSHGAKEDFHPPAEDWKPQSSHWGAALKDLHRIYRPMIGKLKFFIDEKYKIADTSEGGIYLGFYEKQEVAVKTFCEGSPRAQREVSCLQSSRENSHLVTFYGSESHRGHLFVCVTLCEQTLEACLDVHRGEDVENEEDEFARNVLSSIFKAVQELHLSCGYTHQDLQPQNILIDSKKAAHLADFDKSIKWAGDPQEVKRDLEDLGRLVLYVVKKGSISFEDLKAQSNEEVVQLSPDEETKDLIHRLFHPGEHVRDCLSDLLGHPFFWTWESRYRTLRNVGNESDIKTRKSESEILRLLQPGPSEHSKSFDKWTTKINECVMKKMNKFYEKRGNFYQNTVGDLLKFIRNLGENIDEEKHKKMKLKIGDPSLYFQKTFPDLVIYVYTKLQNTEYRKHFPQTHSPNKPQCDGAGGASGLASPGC
Protocol: Co-Immunoprecipitation of pre-miR-2I and RNase L. Approximately 20,000 cpm of 32P 5′-end labeled WT or mutant pre-miR-21 or an RNA construct where the A-bulge was mutated to a base pair (5′-[…] UGGGCUGU-3′) was folded in 1× RNase L Assay Buffer for 1 min at 95° C. and cooled on ice for 10 min. Following cooling, β-mercaptoethanol (7 mM), ATP (50 μM), and MgCl2 (1 mM) were added to the solution. The solution was aliquoted, and compounds were incubated in solution for 15 min (1% DMSO final concentration). […] Beads were then washed with 1×PBS supplemented with 0.02% (v/v) Tween-20. Radioactive signal in the supernatant and associated with the beads was quantified by a Beckman Coulter LS6500 Liquid Scintillation Counter. Relative RNA enrichment was calculated by comparing the radioactive signal associated with beads compared to the total radioactive signal from the beads plus the supernatant.

[2] = system: PDCD4; assay: Western blot of PDCD4; type: cell-based
Protocol: RiboTAC 7 was then assessed for its ability to affect protein levels by deactivation of a miR-21-mediated cancer circuit, i.e., derepression of PDCD4. […] Proteome-wide analysis was also completed to study the effects of 7 and a locked nucleic acid (LNA) oligonucleotide that targets miR-21-5p on the proteome. The concentrations tested of both provided similar activity (5 nM of 7 and 100 nM of the LNA), as assessed by their effect on PDCD4 levels, ˜40% enhancement. […] Neither modality affected proteins that are direct targets of miRNA let-7b-5p, further supporting that RiboTAC 7 is selectively deactivating a miR-21-mediated cancer circuit in cells (FIG. 11C-11D).
Quantification of Protein Levels by Western Blotting. MDA-MB-231 cells were treated as described in “Cell Culture.” After treatment, the medium was removed, and the cells were washed with 1× Dulbecco's phosphate-buffered saline (DPBS). Total protein was extracted using Mammalian Protein Extraction Reagent (M-PER, Thermo Scientific) according to the manufacturer's protocol. Protein concentration was measured using a Pierce Micro BCA Protein Assay kit (Fisher Scientific). […]
Western blots were quantified using ImageJ (National Institutes of Health).^12 Protein expression was normalized to […] abundance. […]

SMILES: CNC(=O)[C@H](c1ccccc1)N(C)Cc1ccc(-c2cccc(-c3sccc3NC(=O)CCOCCOCCOCCC(=O)NCCN3CCN(c4ccc5nc(-c6c(N)c7c(F)cccc7[nH]c6=O)[nH]c5c4)CC3)c2)cc1 [RiboTAC 7, (S)—N-(2-(4-(2-(4-amino-5-fluoro-2-oxo-1,2-dihydroquinolin-3-yl)-1H-benzo[d]imidazol-6-yl)piperazin-1-yl)ethyl)-3-(2-(2-(3-((2-(4′-((methyl(2-(methylamino)-2-oxo-1-phenylethyl)amino)methyl)-[1,1′-biphenyl]-3-yl)thiophen-3-yl)amino)-3-oxopropoxy)ethoxy)ethoxy)propanamide]
- co-immunoprecipitation of RNA with RNase L [1]: not its base paired mutant
- enhancement of PDCD4 levels ([2]; 5 nM of 7 and 100 nM of the LNA as printed): ~40%
- increase of PDCD4 protein levels ([2]; 5 μM, CRISPR-Control sgRNA MDA-MB-231 cells): ~40%
